Data from US20240349726A1, “SUBSTITUTED 1,2,4-THIADIAZOLYL NICOTINAMIDES, SALTS OR N-OXIDES THEREOF AND THEIR USE AS HERBICIDALLY ACTIVE SUBSTANCES” (Bayer Aktiengesellschaft, priority 2021, published 2024).

Experiments:
Format in all cases: in vivo
Amaranthus retroflexus [1] = assay: Herbicidal pre-emergence action, AMARE; settings: visual grading after ca. 3 weeks vs untreated controls
From the text: (§1) Seeds of mono- and dicotyledonous weed plants were sown in plastic pots (double sowings with one species of mono- and one species of dicotyledonous weed plants per pot), in sandy loam, and covered with soil. The compounds according to the invention, formulated in the form of wettable powders (WP) or as emulsifiable concentrates (EC), were applied to the surface of the covering soil as an aqueous suspension or as an emulsion, with the addition of 0.5% of an additive, at an application rate of 600 litres of water per hectare (converted). Following treatment, the pots were placed in a greenhouse and kept under optimum growth conditions for the test plants. The visual grading of the damage to the test plants is carried out after ca. 3 weeks in comparison to untreated controls (herbicidal effect in percent (%): 100% effect=plants have died, 0% effect=as control plants). Seeds of mono- and dicotyledonous weed plants were sown in plastic pots (double sowings with one species of mono- and one species of dicotyledonous weed plants per pot), in sandy loam, and covered with soil. The compounds according to the invention, formulated in the form of wettable powders (WP) or as emulsifiable concentrates (EC), were applied to the surface of the covering soil as an aqueous suspension or as an emulsion, with the addition of 0.5% of an additive, at an application rate of 600 litres of water per hectare (converted). Following treatment, the pots were placed in a greenhouse and kept under optimum growth conditions for the test plants. The visual grading of the damage to the test plants is carried out after ca. 3 weeks in comparison to untreated controls (herbicidal effect in percent (%): 100% effect=plants have died, 0% effect=as control plants).

Veronica persica [2] = assay: Herbicidal post-emergence action, VERPE; settings: assessed visually after ca. 3 weeks vs untreated controls
From the text: (§2) Seeds of mono- and dicotyledonous weed plants were sown in plastic pots (double sowings with one species of mono- and one species of dicotyledonous weed plants per pot), in sandy loam, covered with soil and grown under controlled growth conditions. 2 to 3 weeks after sowing, the test plants were sprayed in the single-leaf stage. The compounds according to the invention, formulated in the form of wettable powders (WP) or as emulsifiable concentrates (EC), were sprayed onto the green plant parts as an aqueous suspension or as an emulsion, with the addition of 0.5% of an additive, at an application rate of 600 litres of water per hectare (converted). The test plants were placed in the greenhouse for ca. 3 weeks under optimum growth conditions, and then the effect of the preparations is assessed visually in comparison with untreated controls (herbicidal effect in percent (%): 100% effect=plants have died, 0% effect=as control plants). […]

Veronica persica [3] = assay: Herbicidal pre-emergence action, VERPE; settings: visual grading after ca. 3 weeks vs untreated controls
From the text: as §1

Lolium rigidum [4] = assay: Herbicidal pre-emergence action, LOLRI; settings: visual grading after ca. 3 weeks vs untreated controls
From the text: as §1

Poa annua [5] = assay: Herbicidal post-emergence action, POAAN; settings: assessed visually after ca. 3 weeks vs untreated controls
From the text: as §2

Amaranthus retroflexus [6] = assay: Herbicidal post-emergence action, AMARE; settings: assessed visually after ca. 3 weeks vs untreated controls
From the text: as §2

Setaria viridis [7] = assay: Herbicidal post-emergence action, SETVI; settings: 1280 g/ha, assessed visually after ca. 3 weeks vs untreated controls
From the text: (§3) Seeds of mono- and dicotyledonous weed plants were sown in plastic pots (double sowings with one species of mono- and one species of dicotyledonous weed plants per pot), in sandy loam, covered with soil and grown under controlled growth conditions. 2 to 3 weeks after sowing, the test plants were sprayed in the single-leaf stage. The compounds according to the invention, formulated in the form of wettable powders (WP) or as emulsifiable concentrates (EC), were sprayed onto the green plant parts as an aqueous suspension or as an emulsion, with the addition of 0.5% of an additive, at an application rate of 600 litres of water per hectare (converted). The test plants were placed in the greenhouse for ca. 3 weeks under optimum growth conditions, and then the effect of the preparations is assessed visually in comparison with untreated controls (herbicidal effect in percent (%): 100% effect=plants have died, 0% effect=as control plants).

Kochia scoparia [8] = assay: Herbicidal pre-emergence action, KCHSC; settings: visual grading after ca. 3 weeks vs untreated controls
From the text: as §1

Stellaria media [9] = assay: Herbicidal post-emergence action, STEME; settings: assessed visually after ca. 3 weeks vs untreated controls
From the text: as §2

Alopecurus myosuroides [10] = assay: Herbicidal post-emergence action, ALOMY; settings: assessed visually after ca. 3 weeks vs untreated controls
From the text: as §2

Stellaria media [11] = assay: Herbicidal pre-emergence action, STEME; settings: visual grading after ca. 3 weeks vs untreated controls
From the text: as §1

Kochia scoparia [12] = assay: Herbicidal post-emergence action, KCHSC; settings: assessed visually after ca. 3 weeks vs untreated controls
From the text: as §2

Poa annua [13] = assay: Herbicidal pre-emergence action, POAAN; settings: visual grading after ca. 3 weeks vs untreated controls
From the text: as §1

Abutilon theophrasti [14] = assay: Herbicidal post-emergence action, ABUTH; settings: 1280 g/ha, assessed visually after ca. 3 weeks vs untreated controls
From the text: as §2

Matricaria inodora [15] = assay: Herbicidal pre-emergence action, MATIN; settings: visual grading after ca. 3 weeks vs untreated controls
From the text: as §1

Lolium rigidum [16] = assay: Herbicidal post-emergence action, LOLRI; settings: assessed visually after ca. 3 weeks vs untreated controls
From the text: as §2

Matricaria inodora [17] = assay: Herbicidal post-emergence action, MATIN; settings: assessed visually after ca. 3 weeks vs untreated controls
From the text: as §2

Setaria viridis [18] = assay: Herbicidal pre-emergence action, SETVI; settings: 1280 g/ha, visual grading after ca. 3 weeks vs untreated controls
From the text: (§4) Seeds of mono- and dicotyledonous weed plants were sown in plastic pots (double sowings with one species of mono- and one species of dicotyledonous weed plants per pot), in sandy loam, and covered with soil. The compounds according to the invention, formulated in the form of wettable powders (WP) or as emulsifiable concentrates (EC), were applied to the surface of the covering soil as an aqueous suspension or as an emulsion, with the addition of 0.5% of an additive, at an application rate of 600 litres of water per hectare (converted). Following treatment, the pots were placed in a greenhouse and kept under optimum growth conditions for the test plants. The visual grading of the damage to the test plants is carried out after ca. 3 weeks in comparison to untreated controls (herbicidal effect in percent (%): 100% effect=plants have died, 0% effect=as control plants).

Alopecurus myosuroides [19] = assay: Herbicidal pre-emergence action, ALOMY; settings: 1280 g/ha, visual grading after ca. 3 weeks vs untreated controls
From the text: as §4

Echinochloa crus-galli [20] = assay: Herbicidal pre-emergence action, ECHCG; settings: 1280 g/ha, visual grading after ca. 3 weeks vs untreated controls
From the text: as §4

Digitaria sanguinalis = assay: Herbicidal pre-emergence action, DIGSA; settings: 1280 g/ha, visual grading after ca. 3 weeks vs untreated controls
From the text: as §4

Echinochloa crus-galli [21] = assay: Herbicidal post-emergence action, ECHCG; settings: 1280 g/ha, assessed visually after ca. 3 weeks vs untreated controls
From the text: as §3

Abutilon theophrasti [22] = assay: Herbicidal pre-emergence action, ABUTH; settings: 1280 g/ha, visual grading after ca. 3 weeks vs untreated controls
From the text: as §4

Compound	herbicidal effect AMARE (Amaranthus retroflexus [1]; 1280 g/ha) [%]	herbicidal effect VERPE (Veronica persica [2]; 320 g/ha) [%]	herbicidal effect VERPE (Veronica persica [2]; 1280 g/ha) [%]	herbicidal effect LOLRI (Lolium rigidum [4]; 1280 g/ha) [%]	herbicidal effect POAAN (Poa annua [5]; 320 g/ha) [%]	herbicidal effect POAAN (Poa annua [5]; 1280 g/ha) [%]	herbicidal effect AMARE (Amaranthus retroflexus [6]; 1280 g/ha) [%]	herbicidal effect SETVI (Setaria viridis [7]) [%]	herbicidal effect KCHSC (Kochia scoparia [8]; 1280 g/ha) [%]	herbicidal effect STEME (Stellaria media [9]; 320 g/ha) [%]	herbicidal effect STEME (Stellaria media [9]; 1280 g/ha) [%]	herbicidal effect STEME (Stellaria media [11]; 320 g/ha) [%]	herbicidal effect STEME (Stellaria media [11]; 1280 g/ha) [%]	herbicidal effect KCHSC (Kochia scoparia [12]; 1280 g/ha) [%]	herbicidal effect POAAN (Poa annua [13]; 1280 g/ha) [%]	herbicidal effect MATIN (Matricaria inodora [15]; 320 g/ha) [%]	herbicidal effect MATIN (Matricaria inodora [15]; 1280 g/ha) [%]	herbicidal effect LOLRI (Lolium rigidum [16]; 1280 g/ha) [%]	herbicidal effect MATIN (Matricaria inodora [17]; 320 g/ha) [%]	herbicidal effect MATIN (Matricaria inodora [17]; 1280 g/ha) [%]	other results
O=C(Nc1ncns1)c1c(C(F)(F)F)ccnc1F [Example I-002]	90	100	100	100	100	100	100	90	90	100	100	100	100	100	100	90	100	100	90	100	herbicidal effect VERPE (Veronica persica [3]; 320 g/ha): 90%; herbicidal effect VERPE (Veronica persica [3]; 1280 g/ha): 100%; herbicidal effect LOLRI (Lolium rigidum [4]; 320 g/ha): 100%; herbicidal effect ALOMY (Alopecurus myosuroides [10]; 320 g/ha): 100%; herbicidal effect ALOMY (Alopecurus myosuroides [10]; 1280 g/ha): 100%; herbicidal effect KCHSC (Kochia scoparia [12]; 320 g/ha): 100%; herbicidal effect POAAN (Poa annua [13]; 320 g/ha): 100%; herbicidal effect ABUTH (Abutilon theophrasti [14]): 90%; herbicidal effect LOLRI (Lolium rigidum [16]; 320 g/ha): 90%
O=C(Nc1nc(Cl)ns1)c1cnccc1C(F)(F)F [Example I-015]		90	90				100	90	90	100	100			90					90	100	
O=C(Nc1nc(Cl)ns1)c1c(C(F)(F)F)ccnc1F [Example I-009, N-(3-chloro-1,2,4-thiadiazol-5-yl)-2-fluoro-4-(trifluoromethyl)pyridine-3-carboxamide]	100	100	100	90	90	100	100	90	100	100	100	100	100	100	90	100	100	90	100	100	herbicidal effect AMARE (Amaranthus retroflexus [1]; 320 g/ha): 90%; herbicidal effect VERPE (Veronica persica [3]; 1280 g/ha): 90%; herbicidal effect SETVI (Setaria viridis [18]): 90%; herbicidal effect AMARE (Amaranthus retroflexus [6]; 320 g/ha): 100%; herbicidal effect KCHSC (Kochia scoparia [8]; 320 g/ha): 90%; herbicidal effect ALOMY (Alopecurus myosuroides [10]; 320 g/ha): 90%; herbicidal effect ALOMY (Alopecurus myosuroides [10]; 1280 g/ha): 100%; herbicidal effect KCHSC (Kochia scoparia [12]; 320 g/ha): 100%; herbicidal effect ABUTH (Abutilon theophrasti [14]): 90%; herbicidal effect ALOMY (Alopecurus myosuroides [19]): 100%; herbicidal effect ECHCG (Echinochloa crus-galli [20]): 90%
O=C(Nc1ncns1)c1c(C(F)(F)F)ccnc1C1CC1 [Example I-005]	100	100	100	100	100	100			100	90	90	100	100	90	100		100				herbicidal effect DIGSA (Digitaria sanguinalis): 90%; herbicidal effect POAAN (Poa annua [13]; 320 g/ha): 100%
CC(C)c1ccnc(F)c1C(=O)Nc1ncns1 [Example I-025]	100		90	100			100		90	90	90	90	90			100	100	90		90	herbicidal effect AMARE (Amaranthus retroflexus [1]; 320 g/ha): 90%; herbicidal effect LOLRI (Lolium rigidum [4]; 320 g/ha): 90%; herbicidal effect SETVI (Setaria viridis [18]): 90%; herbicidal effect AMARE (Amaranthus retroflexus [6]; 320 g/ha): 90%; herbicidal effect ECHCG (Echinochloa crus-galli [21]): 90%; herbicidal effect ABUTH (Abutilon theophrasti [22]): 100%
